The supplement of paper PMC10331698
± gives the standard deviation of the averaged measurements.

Columns and labels:
[1] = compound: T1, C=CC(=O)OCC(F)(F)C(F)(F)C(F)(F)COC(=O)C=C [1H,1H,5H,5H-Perfluoro-1,5-pentanediol diacrylate]; test: LOEC (log10 uM (lowest observed effect concentration))
Method: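 BioMAP Diversity Plus panel in human primary cell co-cultures, 4 concentrations in duplicate blinded samples. Responses are log10 fold change versus DMSO control, processed with tcpl v2.1.0. A hit is called when responses at any concentration exceed the cutoff (the larger of 3*bmad or log10(1.2)); the lowest observed effect concentration (modl_ga, log10 uM) is reported for hits.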

[2] = compound: C=C(C)C(=O)OCCC(F)(F)C(F)(F)C(F)(F)C(F)(F)C(F)(F)C(F)(F)F [6:2 Fluorotelomer methacrylate]; test: level (log10 ratio to DMSO vehicle control); higher = higher biomarker level / cell amount than vehicle control; conditions: in DMSO
Method: (§1)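 BioMAP Diversity Plus panel of 12 human primary cell co-culture systems (3C, 4H, LPS, SAg, BT, BF4T, BE3C, CASM3C, HDF3CGF, KF3CT, MyoF, Mphg). Compounds were added 1 h before stimulation and left for 24 h (MyoF 48 h; BT 72 h for soluble read-outs or 6 d for IgG). Biomarkers were read by ELISA, cytotoxicity by SRB, PBMC viability and proliferation by Alamar Blue. Each well value was divided by the mean of 8 DMSO control wells on the same plate and log10 transformed; duplicate blinded samples were tested at 4 concentrations.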

[3] = compound: T1, 1H,1H,5H,5H-Perfluoro-1,5-pentanediol diacrylate; test: as above; conditions: 6700 nM; in DMSO
Method: as §1

[4] = compound: COC(=O)C(F)(F)C(F)(F)OC(F)(C(F)(F)F)C(F)(F)OC(F)=C(F)F [Methyl perfluoro(3-(1-ethenyloxypropan-2-yloxy)propanoate)]; test: as above; conditions: in DMSO
Method: as §1

[5] = compound: FC(F)(F)C(F)(F)C(F)(F)C(F)(F)C(F)(F)C(F)(F)C(F)(F)I [1-Iodopentadecafluoroheptane]; test: as above; conditions: in DMSO
Method: as §1

[6] = compound: FC(F)(F)C(F)(F)C(F)(F)C(F)(F)C(F)(F)C(F)(F)CC1CO1 [3-(Perfluorohexyl)-1,2-epoxypropane]; test: as above; conditions: in DMSO
Method: as §1

[7] = compound: FC(F)(F)C(F)(F)C(F)(F)CC1CO1 [1H,1H-Heptafluorobutyl epoxide]; test: as above; conditions: in DMSO
Method: as §1

Heptafluorobutyl iodide = compound: FC(F)(F)C(F)(F)C(F)(F)CI [Heptafluorobutyl iodide]; test: as above; conditions: in DMSO
Method: as §1

[8] = compound: FC(F)(F)C(F)(F)CNCC(F)(F)C(F)(F)F [Bis(1H,1H-perfluoropropyl)amine]; test: as above; conditions: in DMSO
Method: as §1

Octafluoroadipamide = compound: NC(=O)C(F)(F)C(F)(F)C(F)(F)C(F)(F)C(N)=O [Octafluoroadipamide]; test: as above; conditions: in DMSO
Method: as §1

Nonafluoropentanamide = compound: NC(=O)C(F)(F)C(F)(F)C(F)(F)C(F)(F)F [Nonafluoropentanamide]; test: as above; conditions: in DMSO
Method: as §1

[9] = compound: NC(=O)C(F)(F)C(F)(F)C(F)(F)C(F)F; test: as above; conditions: in DMSO
Method: as §1

[10] = compound: NS(=O)(=O)C(F)(F)C(F)(F)C(F)(F)C(F)(F)C(F)(F)C(F)(F)F [Perfluorohexanesulfonamide]; test: as above; conditions: in DMSO
Method: as §1

[11] = compound: O=C(O)C(F)(F)C(F)(F)C(F)(F)C(F)(F)C(F)(F)C(F)(F)C(F)(F)C(F)(F)C(F)(F)C(F)F [11-H-Perfluoroundecanoic acid]; test: as above; conditions: in DMSO
Method: as §1

[12] = compound: O=C(O)C=CC(F)(C(F)(F)F)C(F)(F)F [3-(Perfluoroisopropyl)-2-propenoic acid]; test: as above; conditions: in DMSO
Method: as §1

[13] = compound: O=S(=O)(Cl)C(F)(F)C(F)(F)C(F)(F)C(F)(F)C(F)(F)C(F)(F)C(F)(F)C(F)(F)F [Perfluoro-1-octanesulfonyl chloride]; test: as above; conditions: in DMSO
Method: as §1

[14] = compound: O=S(=O)(F)C(F)(F)C(F)(F)C(F)(F)C(F)(F)C(F)(F)C(F)(F)C(F)(F)C(F)(F)F [Perfluorooctanesulfonyl fluoride]; test: as above; conditions: in DMSO
Method: as §1

[15] = compound: O=S(=O)(O)C(F)(F)C(F)(F)C(F)(F)C(F)(F)C(F)(F)C(F)(F)C(F)(F)C(F)(F)C(F)(F)C(F)(F)F [Sodium perfluorodecanesulfonate]; test: as above; conditions: in DMSO
Method: as §1

[16] = compound: O=S(=O)(O)CCC(F)(F)C(F)(F)C(F)(F)C(F)(F)C(F)(F)C(F)(F)F [6:2 Fluorotelomer sulfonic acid]; test: as above; conditions: in DMSO
Method: as §1

Hexafluoroamylene glycol = compound: OCC(F)(F)C(F)(F)C(F)(F)CO [Hexafluoroamylene glycol]; test: as above; conditions: in DMSO
Method: as §1

## SAg MIG down
[1]
  LOEC (log10 uM): 1.3

## SAg PBMCCytotoxicity down
[1]
  LOEC (log10 uM): 0.845

## SAg:CXCL9/MIG
[2]; 6700 nM
  level (log10): 0.007 ± 0.023
[2]; 20000 nM
  level (log10): 0.0085 ± 0.011
[2]; 60000 nM
  level (log10): 0.012 ± 0.025
[3]
  level (log10): 0.0025 ± 0.0078
[4]; 6700 nM
  level (log10): -0.0145 ± 0.021
[4]; 20000 nM
  level (log10): 0.0055 ± 0.0035
[5]; 6700 nM
  level (log10): 0.006 ± 0.0071
[5]; 20000 nM
  level (log10): 0.02 ± 0.0042
[6]; 6700 nM
  level (log10): 0.008 ± 0.0085
[6]; 20000 nM
  level (log10): 0.006 ± 0.0057
[6]; 60000 nM
  level (log10): 0.002 ± 0.0042
[7]; 6700 nM
  level (log10): -0.0155 ± 0.0078
[7]; 20000 nM
  level (log10): -0.0165 ± 0.015
[7]; 60000 nM
  level (log10): -0.0065 ± 0.018
Heptafluorobutyl iodide; 6700 nM
  level (log10): -0.007 ± 0.0028
Heptafluorobutyl iodide; 20000 nM
  level (log10): -0.0025 ± 0.0021
Heptafluorobutyl iodide; 60000 nM
  level (log10): -0.0085 ± 0.0092
[8]; 6700 nM
  level (log10): -0.0045 ± 0.0021
[8]; 20000 nM
  level (log10): -0.0045 ± 0.0035
[8]; 60000 nM
  level (log10): 0.0075 ± 0.012
Octafluoroadipamide; 6700 nM
  level (log10): 0
Octafluoroadipamide; 20000 nM
  level (log10): -0.0045 ± 0.0064
Octafluoroadipamide; 60000 nM
  level (log10): -0.0005 ± 0.013
Nonafluoropentanamide; 6700 nM
  level (log10): 0.003 ± 0.014
Nonafluoropentanamide; 20000 nM
  level (log10): -0.0035 ± 0.013
Nonafluoropentanamide; 60000 nM
  level (log10): 0.0185 ± 0.015
[9]; 6700 nM
  level (log10): -0.0015 ± 0.0021
[9]; 20000 nM
  level (log10): -0.0055 ± 0.005
[9]; 60000 nM
  level (log10): 0.0105 ± 0.0021
[10]; 6700 nM
  level (log10): -0.0135 ± 0.018
[10]; 20000 nM
  level (log10): -0.004 ± 0.0071
[10]; 60000 nM
  level (log10): 0.0105 ± 0.0064
[11]; 6700 nM
  level (log10): -0.005 ± 0.011
[11]; 20000 nM
  level (log10): -0.011
[12]; 6700 nM
  level (log10): -0.0105 ± 0.025
[12]; 20000 nM
  level (log10): 0.013
[12]; 60000 nM
  level (log10): -0.006 ± 0.0085
[13]; 6700 nM
  level (log10): -0.007 ± 0.0071
[13]; 20000 nM
  level (log10): -0.018 ± 0.0028
[13]; 60000 nM
  level (log10): 0.0075 ± 0.021
[14]; 6700 nM
  level (log10): -0.005 ± 0.0014
[14]; 20000 nM
  level (log10): -0.0015 ± 0.0078
[14]; 60000 nM
  level (log10): 0.002 ± 0.018
[15]; 1500 nM
  level (log10): 0.0075 ± 0.013
[15]; 4400 nM
  level (log10): -0.0085 ± 0.011
[15]; 13000 nM
  level (log10): 0.015 ± 0.013
[15]; 40000 nM
  level (log10): -0.0255 ± 0.013
[16]; 6700 nM
  level (log10): -0.002 ± 0.018
[16]; 20000 nM
  level (log10): -0.0035 ± 0.015
[16]; 60000 nM
  level (log10): -0.0045 ± 0.012
Hexafluoroamylene glycol; 6700 nM
  level (log10): -0.0015 ± 0.011
Hexafluoroamylene glycol; 20000 nM
  level (log10): -0.016 ± 0.016
Hexafluoroamylene glycol; 60000 nM
  level (log10): -0.003 ± 0.0071
